pIC50: −log10 of the molar value. Like-named read-outs stand apart in the source and are kept apart here.
Key:
[1] = tested on: human multiple myeloma cell line, OPM-2; assay: Cell viability assay (OPM-2 10 FBS), CellTiter-Glo; assay type: cell-based
Summary of the method: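 OPM-2 cells at 3000 cells/well in RPMI 1640 with 10% FBS were exposed to serially diluted compounds for 16 h at 37 °C, 5% CO2.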

[2] = biological target: recombinant human Mcl-1 (residues 171-327) / Bim interaction (Homo sapiens (Human), UniProt Q07820); assay: biochemical; assay type: binding; settings: read-out: Mcl-1 HTRF IC50
recombinant human Mcl-1 (residues 171-327) / Bim interaction, sequence (Q07820 171-327): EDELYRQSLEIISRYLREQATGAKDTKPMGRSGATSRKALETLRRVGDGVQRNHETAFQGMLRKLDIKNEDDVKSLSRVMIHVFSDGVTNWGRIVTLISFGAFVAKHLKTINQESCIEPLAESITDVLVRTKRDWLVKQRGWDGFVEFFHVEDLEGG

[3] = Homo sapiens, OPM-2, 16 h, read-out: OPM-2 10% FBS IC50 IP, OPM-2 cells, 10% FBS, 16 h, CellTiter-Glo
[4] = TR-FRET, Mcl-1(171-327) / biotin-Bim (51-76)
[5] = read-out: OPM-2 10% FBS IC50 IP, OPM-2 cells, 10% FBS, 16 h, CellTiter-Glo

SMILES | pIC50 [1, 3] | pIC50 [2, 4] | pIC50 [1, 5] | pIC50 [2]
C[C@@H]1[C@@H](C)CCCC(CN2CCOCC2)(CN2CCOCC2)[C@@H]2CC[C@H]2CN2C[C@@]3(CCCc4cc(Cl)ccc43)COc3ccc(cc32)C(=O)NS1(=O)=O [Example 100452, (1S,3′R,6′R,11′S,12′R)-6-chloro-11′,12′-dimethyl-7′,7′-bis(4-morpholinylmethyl)-3,4-dihydro-2H,15′H-spiro[naphthalene-1,22′-[20]oxa[13]thia[1,14]diazatetracyclo [14.7.2.0~3,6~.0~19,24~]pentacosa[16,18,24]trien]-15′-one 13′,13′-dioxide] | 6.80 | 10.11 |  | 
CO[C@]1(CCN2CC(C)(N(C)C)C2)/C=C/C[C@H](C)[C@@H](C)S(=O)(=O)NC(=O)c2ccc3c(c2)N(C[C@@H]2CC[C@H]21)C[C@@]1(CCCc2cc(Cl)ccc21)CO3 [Example 100453, (1S,3′R,6′R,7′R,8′E,11′S,12′R)-6-chloro-7′-(2-(3-(dimethylamino)-3-methyl-1-azetidinyl)ethyl)-7′-methoxy-11′,12′-dimethyl-3,4-dihydro-2H,15′H-spiro[naphthalene-1,22′-[20]oxa[13]thia[1,14]diazatetracyclo [14.7.2.0~3,6~.0~19,24~]pentacosa[8,16,18,24]tetraen]-15′-one 13′,13′-dioxide] | 5.53 | 9.03 |  | 
C[C@@H]1[C@@H](C)C/C=C/[C@@](O)(C#CCCc2ccccn2)[C@@H]2CC[C@H]2CN2C[C@@]3(CCCc4cc(Cl)ccc43)COc3ccc(cc32)C(=O)NS1(=O)=O [Example 100454, (1S,3′R,6′R,7′S,8′E,11′S,12′R)-6-chloro-7′-hydroxy-11′,12′-dimethyl-7′-(4-(2-pyridinyl)-1-butyn-1-yl)-3,4-dihydro-2H,15′H-spiro[naphthalene-1,22′-[20]oxa[13]thia[1,14]diazatetracyclo [14.7.2.0~3,6~.0~19,24~]pentacosa[8,16,18,24]tetraen]-15′-one 13′,13′-dioxide] |  | 9.19 | 6.10 | 
CCC(=O)C[C@]1(OC)/C=C/C[C@H](C)[C@@H](C)S(=O)(=O)NC(=O)c2ccc3c(c2)N(C[C@@H]2CC[C@H]21)C[C@@]1(CCCc2cc(Cl)ccc21)CO3 [Example 100457, (1S,3′R,6′R,7′S,8′E,11′S,12′R)-6-chloro-7′-methoxy-11′,12′-dimethyl-7′-(2-oxobutyl)-3,4-dihydro-2H,15′H-spiro[naphthalene-1,22′-[20]oxa[13]thia[1,14]diazatetracyclo [14.7.2.0~3,6~.0~19,24~]pentacosa[8,16,18,24]tetraen]-15′-one 13′,13′-dioxide] | 6.01 | 9.48 |  | 
CO[C@@]1(CC(=O)c2ccccc2)/C=C/C[C@H](C)[C@@H](C)S(=O)(=O)NC(=O)c2ccc3c(c2)N(C[C@@H]2CC[C@H]21)C[C@@]1(CCCc2cc(Cl)ccc21)CO3 [Example 100458, (1S,3′R,6′R,7′S,8′E,11′S,12′R)-6-chloro-7′-methoxy-11′,12′-dimethyl-7′-(2-oxo-2-phenylethyl)-3,4-dihydro-2H,15′H-spiro[naphthalene-1,22′-[20]oxa[13]thia[1,14]diazatetracyclo [14.7.2.0~3,6~.0~19,24~]pentacosa[8,16,18,24]tetraen]-15′-one 13′,13′-dioxide] | 6.38 | 9.68 |  | 
CO[C@@]1(CS(C)(=O)=O)/C=C/C[C@H](C)[C@@H](C)S(=O)(=O)NC(=O)c2ccc3c(c2)N(C[C@@H]2CC[C@H]21)C[C@@]1(CCCc2cc(Cl)ccc21)CO3 [Example 100459, (1S,3′R,6′R,7′S,8′E,11′S,12′R)-6-chloro-7′-methoxy-11′,12′-dimethyl-7′-((methylsulfonyl)methyl)-3,4-dihydro-2H,15′H-spiro[naphthalene-1,22′-[20]oxa[13]thia[1,14]diazatetracyclo [14.7.2.0~3,6~.0~19,24~]pentacosa[8,16,18,24]tetraen]-15′-one 13′,13′-dioxide] | 6.14 | 9.16 |  | 
CO[C@@H](C[C@]1(OC)/C=C/C[C@H](C)[C@@H](C)S(=O)(=O)NC(=O)c2ccc3c(c2)N(C[C@@H]2CC[C@H]21)C[C@@]1(CCCc2cc(Cl)ccc21)CO3)C1CC1 [Example 100462, (1S,3′R,6′R,7′S,8′E,11′S,12′R)-6-chloro-7′-((2S)-2-cyclopropyl-2-methoxyethyl)-7′-methoxy-11′,12′-dimethyl-3,4-dihydro-2H,15′H-spiro[naphthalene-1,22′-[20]oxa[13]thia[1,14]diazatetracyclo [14.7.2.0~3,6~.0~19,24~]pentacosa[8,16,18,24]tetraen]-15′-one 13′,13′-dioxide] | 6.19 | 9.52 |  | 
CO[C@@H](C[C@]1(OC)/C=C/C[C@H](C)[C@@H](C)S(=O)(=O)NC(=O)c2ccc3c(c2)N(C[C@@H]2CC[C@H]21)C[C@@]1(CCCc2cc(Cl)ccc21)CO3)C1CC1 [Example 100463, (1S,3′R,6′R,7′S,8′E,11′S,12′R)-6-chloro-7′-((2S)-2-cyclopropyl-2-methoxyethyl)-7′-methoxy-11′,12′-dimethyl-3,4-dihydro-2H,15′H-spiro[naphthalene-1,22′-[20]oxa[13]thia[1,14]diazatetracyclo [14.7.2.0~3,6~.0~19,24~]pentacosa[8,16,18,24]tetraen]-15′-one 13′,13′-dioxide] |  | 9.42 | 5.95 | 
COCCO[C@@]1(C)/C=C/C[C@H](C)[C@@H](C)S(=O)(=O)NC(=O)c2ccc3c(c2)N(C[C@@H]2CC[C@H]21)C[C@@]1(CCCc2cc(Cl)ccc21)CO3 [Example 100466, (1S,3′R,6′R,7′S,8′E,11′S,12′R)-6-chloro-7′-(2-methoxyethoxy)-7′,11′,12′-trimethyl-3,4-dihydro-2H,15′H-spiro[naphthalene-1,22′-[20]oxa[13]thia[1,14]diazatetracyclo [14.2.0~3,6~.0~19,24~]pentacosa[8,16,18,24]tetraen]-15′-one 13′,13′-dioxide] | 5.84 | 10.37 |  | 
C[C@@H]1[C@@H](C)C/C=C/[C@@](C)(OCCN2CCOCC2)[C@@H]2CC[C@H]2CN2C[C@@]3(CCCc4cc(Cl)ccc43)COc3ccc(cc32)C(=O)NS1(=O)=O [Example 100467, (1S,3′R,6′R,7′R,8′E,11′S,12′R)-6-chloro-7′,11′,12′-trimethyl-7′-(2-(4-morpholinyl)ethoxy)-3,4-dihydro-2H,15′H-spiro[naphthalene-1,22′-[20]oxa[13]thia[1,14]diazatetracyclo [14.7.2.0~3,6~.0~19,24~]pentacosa[8,16,18,24]tetraen]-15′-one 13′,13′-dioxide] | 6.29 | 9.52 |  | 
CO[C@@]1(c2cncnc2)/C=C/C[C@H](C)[C@@H](C)S(=O)(=O)NC(=O)c2ccc3c(c2)N(C[C@@H]2CC[C@H]21)C[C@@]1(CCCc2cc(Cl)ccc21)CO3 [Example 100468, (1S,3′R,6′R,7′S,8′E,11′S,12′R)-6-chloro-7′-methoxy-11′,12′-dimethyl-7′-(5-pyrimidinyl)-3,4-dihydro-2H,15′H-spiro[naphthalene-1,22′-[20]oxa[13]thia[1,14]diazatetracyclo [14.7.2.0~3,6~.0~19,24~]pentacosa[8,16,18,24]tetraen]-15′-one 13′,13′-dioxide] | 6.03 | 9.41 |  | 
C[C@@H]1[C@@H](C)CCC[C@](O)(c2ccccn2)[C@@H]2CC[C@H]2CN2C[C@@]3(CCCc4cc(Cl)ccc43)COc3ccc(cc32)C(=O)NS1(=O)=O [Example 100469, (1S,3′R,6′R,7′R,11′S,12′R)-6-chloro-7′-hydroxy-11′,12′-dimethyl-7′-(2-pyridinyl)-3,4-dihydro-2H,15′H-spiro[naphthalene-1,22′-[20]oxa[13]thia[1,14]diazatetracyclo [14.7.2.0~3,6~.0~19,24~]pentacosa[16,18,24]trien]-15′-one 13′,13′-dioxide] | 6.49 | 10.07 |  | 
C=C(C)[C@@H](O)C[C@]1(OC)/C=C/C[C@H](C)[C@@H](C)S(=O)(=O)NC(=O)c2ccc3c(c2)N(C[C@@H]2CC[C@H]21)C[C@@]1(CCCc2cc(Cl)ccc21)CO3 [Example 100470, (1S,3′R,6′R,7′S,8′E,11′S,12′R)-6-chloro-7′-((2S)-2-hydroxy-3-methyl-3-buten-1-yl)-7′-methoxy-11′,12′-dimethyl-3,4-dihydro-2H,15′H-spiro[naphthalene-1,22′-[20]oxa[13]thia[1,14]diazatetracyclo [14.7.2.0~3,6~.0~19,24~]pentacosa[8,16,18,24]tetraen]-15′-one 13′,13′-dioxide] |  |  | 5.02 | 9.24
C=C(C)[C@@H](O)C[C@]1(OC)/C=C/C[C@H](C)[C@@H](C)S(=O)(=O)NC(=O)c2ccc3c(c2)N(C[C@@H]2CC[C@H]21)C[C@@]1(CCCc2cc(Cl)ccc21)CO3 [Example 100471, (1S,3′R,6′R,7′S,8′E,11′S,12′R)-6-chloro-7′-((2S)-2-hydroxy-3-methyl-3-buten-1-yl)-7′-methoxy-11′,12′-dimethyl-3,4-dihydro-2H,15′H-spiro[naphthalene-1,22′-[20]oxa[13]thia[1,14]diazatetracyclo [14.7.2.0~3,6~.0~19,24~]pentacosa[8,16,18,24]tetraen]-15′-one 13′,13′-dioxide] |  |  | 6.52 | 9.55
CO[C@]1(CCN(C)C)CCC[C@H](C)[C@@H](C)S(=O)(=O)NC(=O)c2ccc3c(c2)N(C[C@@H]2CC[C@H]21)C[C@@]1(CCCc2cc(Cl)ccc21)CO3 [Example 100472, (1S,3′R,6′R,7′S,11′S,12′R)-6-chloro-7′-(2-(dimethylamino)ethyl)-7′-methoxy-11′,12′-dimethyl-3,4-dihydro-2H,15′H-spiro[naphthalene-1,22′-[20]oxa[13]thia[1,14]diazatetracyclo [14.7.2.0~3,6~.0~19,24~]pentacosa[16,18,24]trien]-15′-one 13′,13′-dioxide] | 6.45 | 9.19 |  | 

Reference: patent US10821115B2, “Compounds that inhibit Mcl-1 protein” (priority 2017, dated 2020)
